In patent US7291732B2, “Isomeric fused pyrrolocarbazoles and isoindolones” (Cephalon, Inc., priority 1999, dated 2007):
Where two headings read alike, the source gives them in different places. One block for each molecule: values may come before it.

Experiments:
[1] = target: T1, baculovirus-expressed human trkA cytoplasmic domain (Homo sapiens, UniProt P04629); assay: trkA tyrosine kinase activity inhibition, ELISA-based assay; assay type: biochemical; details: for inhibition at 0.3 µM: read-out: trkA (% inhibition @ 300 nM)
T1 construct: baculovirus-expressed human trkA cytoplasmic domain; made in house
T1 sequence (P04629 440-796 limits assumed): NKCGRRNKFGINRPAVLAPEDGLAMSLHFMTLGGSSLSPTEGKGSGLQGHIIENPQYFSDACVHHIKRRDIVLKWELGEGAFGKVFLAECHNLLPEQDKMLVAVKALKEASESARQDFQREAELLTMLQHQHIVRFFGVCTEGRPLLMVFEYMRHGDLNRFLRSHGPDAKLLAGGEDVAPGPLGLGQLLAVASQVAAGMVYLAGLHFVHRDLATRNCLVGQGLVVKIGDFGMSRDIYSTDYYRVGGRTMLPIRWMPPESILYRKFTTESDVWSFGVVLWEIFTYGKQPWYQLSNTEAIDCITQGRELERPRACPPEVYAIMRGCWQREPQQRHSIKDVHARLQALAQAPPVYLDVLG
Procedure: Selected isomeric fused pyrrolocarbazole and isoindolone compounds were tested for their ability to inhibit the kinase activity of baculovirus-expressed human trkA cytoplasmic domain using an ELISA-based assay as previously described (Angeles et al, Anal. Biochem. 236: 49-55, 1996). Briefly, the 96-well microtiter plate was coated with substrate solution (recombinant human phospholipase C-γl/glutathione S-transferase fusion protein (Rotin et al., EMBO J., II: 559-567, 1992). Inhibition studies were performed in 100 μl assay mixtures containing 50 mM Hepes, pH 7.4, 40 μM ATP, 10 mM MnCl2, 0.1% BSA; 2% DMSO, and various concentrations of inhibitor. The reaction was initiated by addition of trkA kinase and allowed to proceed for 15 minutes at 37° C. An antibody to phosphotyrosine (UBI) was then added, followed by a secondary enzyme-conjugated antibody, alkaline phosphatase-labelled goat anti-mouse IgG (Bio-Rad). The activity of the bound enzyme was measured via an amplified detection system (Gibco-BRL). Inhibition data were analyzed using the sigmoidal dose-response (variable slope) equation in GraphPad Prism.

[2] = target: T2, baculovirus-expressed VEGF receptor (human flk-1, KDR, VEGFR2) kinase domain (Homo sapiens, UniProt P35968); assay: VEGF receptor kinase activity inhibition, ELISA assay; assay type: biochemical; details: for IC50 / VEGFR kinase (% inhibition @ 300 nM): 40 μM ATP; for IC50: value printed without parentheses, read-out: VEGFR kinase IC50; for VEGFR kinase (% inhibition @ 300 nM): 300 nM compound, value printed in parentheses
T2 construct: VEGF receptor (human flk-1, KDR, VEGFR2) kinase domain; made in house
T2 sequence (P35968 834-1162 limits assumed): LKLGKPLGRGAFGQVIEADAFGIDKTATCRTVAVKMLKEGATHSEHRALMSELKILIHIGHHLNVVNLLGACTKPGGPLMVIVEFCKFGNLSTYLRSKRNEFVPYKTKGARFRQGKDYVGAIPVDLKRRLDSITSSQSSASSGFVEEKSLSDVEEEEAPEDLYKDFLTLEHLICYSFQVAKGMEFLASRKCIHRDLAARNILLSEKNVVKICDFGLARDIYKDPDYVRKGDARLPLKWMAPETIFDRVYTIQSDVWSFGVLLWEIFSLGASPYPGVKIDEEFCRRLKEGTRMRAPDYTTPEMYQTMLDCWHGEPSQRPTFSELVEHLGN
Procedure: Isomeric fused pyrrolocarbazole and isoindolone compounds were examined for their inhibitory effects on the kinase activity of baculovirus-expressed VEGF receptor (human flk-1, KDR, VEGFR2) kinase domain using the procedure described for the trkA kinase ELISA assay described above. The kinase reaction mixture, consisting of 50 mM Hepes, pH 7.4, 40 μM ATP, 10 mM MnCl2, 0.1% BSA, 2% DMSO, and various concentrations of inhibitor, was transferred to PLC-γ/GST-coated plates. VEGFR kinase was added and the reaction was allowed to proceed for 15 min at 37° C. Detection of phosphorylated product was accomplished by addition of anti-phosphotyrosine antibody (UBI). A secondary enzyme-conjugated antibody was delivered to capture the antibody-phosphorylated PLC-γ/GST complex. The activity of the bound enzyme was measured via an amplified detection system (Gibco-BRL). Inhibition data were analyzed using the sigmoidal dose-response (variable slope) equation in GraphPad Prism Results are summarized in Table 6.

[3] = target: T3, baculovirus-expressed PDGFβ receptor kinase domain (Homo sapiens, UniProt P09619); assay: PDGF receptor kinase activity inhibition, ELISA assay; assay type: biochemical; details: for inhibition at 1 µM: read-out: PDGFRβ (% inhibition @ 1 μM)
T3 construct: baculovirus-expressed PDGFβ receptor kinase domain; made in house
T3 sequence (P09619 600-962 limits assumed): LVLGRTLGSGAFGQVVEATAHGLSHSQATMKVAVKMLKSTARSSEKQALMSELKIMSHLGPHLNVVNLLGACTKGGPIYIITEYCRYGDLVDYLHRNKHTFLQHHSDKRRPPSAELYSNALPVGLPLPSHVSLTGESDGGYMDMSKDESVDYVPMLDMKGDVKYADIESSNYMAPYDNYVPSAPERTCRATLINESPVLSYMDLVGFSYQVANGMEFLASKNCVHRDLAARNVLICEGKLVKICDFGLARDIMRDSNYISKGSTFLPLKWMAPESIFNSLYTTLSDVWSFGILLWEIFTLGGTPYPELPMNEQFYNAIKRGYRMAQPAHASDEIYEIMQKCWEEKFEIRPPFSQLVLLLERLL
Procedure: Isomeric fused pyrrolocarbazole and isoindolone compounds were examined for their inhibitory effects on the kinase activity of baculovirus-expressed PDGFβ receptor kinase domain using the trkA kinase ELISA described above. Assays were performed in substrate (PLC-γ/GST)-coated 96-well microtiter plates. Each 100-μl reaction mixture contained 50 mM HEPES, pH 7.4, 20 μM ATP, 10 mM MnCl2, 0.1% BSA, 2% DMSO, and various concentrations of inhibitor. The reaction was initiated by addition of prephosphorylated recombinant human enzyme (10 ng/ml PDGFβ) and allowed to proceed for 15 minutes at 37° C. The prephosphorylated enzyme was prepared prior to use by incubation of the kinase in buffer containing 20 μM ATP and 10 mM MnCl2 for 1 hour at 4 C. Detection of phosphorylated product was done by adding horseradish peroxidase (HRP)-conjugated anti-phosphotyrosine antibody (UBI). The HRP substrate solution containing 3,3′-5,5′-tetramethylbenzidine and hydrogen peroxide was later added and the plates were incubated for 10 minutes at room temperature. The reaction was quenched with acid and the resulting absorbance was read at 450 nm using a Microplate Bio-kinetics Reader (Bio-Tek Instrument EL 312e). Inhibition data were analyzed using the sigmoidal dose-response (variable slope) equation in GraphPad Prism.

[4] = 300 nM compound, 40 μM ATP, value printed in parentheses
[5] = 1 μM compound, 20 μM ATP, value printed in parentheses

inhibition at 0.3 µM [1, 4]: 15%
IC50 [2]: 138 nM
SMILES: O=C1NCc2c3c(c4c(c21)c1ccccc1n4CCO)-c1ccccc1CC3 [Compound X-4]

inhibition at 0.3 µM [1, 4]: 0%
melting point: > 300 °C
IC50 [2]: 71 nM
inhibition at 1 µM [3, 5]: 6%
SMILES: O=C1NC(=O)c2c1c1c(c3[nH]c4ccccc4c23)-c2ccccc2C1 [IV-1]

inhibition at 0.3 µM [1, 4]: 2%
IC50 [2]: 870 nM
inhibition at 1 µM [3, 5]: 17%
SMILES: O=c1[nH]c(=O)c2c1c1c(=O)c3ccccc3c1c1[nH]c3ccccc3c12 [IV-2]

inhibition at 0.3 µM [1, 4]: 18%
melting point: > 262 °C
IC50 [2]: 332 nM
inhibition at 1 µM [3, 5]: 0%
SMILES: Cn1c2ccccc2c2c3c(c4c(c21)-c1ccccc1C4)C(=O)NC3=O [IV-3]

SMILES: O=C1NC(=O)c2c1c1c(c3[nH]c4ccccc4c23)-c2ccccc2CC1 [IV-5]
trkA (% inhibition @ 300 nM) [1, 4]: (14) %
IC50 [2]: 160 nM
PDGFRβ (% inhibition @ 1 μM) [3, 5]: (26) %

SMILES: COc1ccc2[nH]c3c4c(c5c(c3c2c1)C(=O)NC5=O)CCc1ccccc1-4 [IV-6]
inhibition at 0.3 µM ([2]; read-out: VEGFR kinase (% inhibition @ 300 nM)): 14%

inhibition at 0.3 µM [1, 4]: 6%
melting point: > 300 °C
IC50 [2]: 2860 nM
inhibition at 1 µM [3, 5]: 20%
SMILES: O=C1NC(=O)c2c1c1c(c3[nH]c4ccc(Br)cc4c23)-c2ccccc2CC1 [IV-9]

inhibition at 0.3 µM [1, 4]: 6%
IC50 [2]: 5330 nM
inhibition at 1 µM [3, 5]: 11%
SMILES: O=C1NC(=O)c2c1c1sc3ccccc3c1c1[nH]c3ccccc3c21 [IV-10]

inhibition at 0.3 µM [1, 4]: 4%
IC50 [2]: 555 nM
inhibition at 1 µM [3, 5]: 6%
SMILES: O=C1NC(=O)c2c1c1c(c3[nH]c4ccccc4c23)-c2ccccc2OC1 [IV-11]

SMILES: COCC1c2ccccc2-c2c1c1c(c3c2[nH]c2ccccc23)C(=O)NC1=O (centres unmarked) [IV-12]
VEGFR kinase (% inhibition @ 300 nM) [2]: (19) %

SMILES: O=C1NC(=O)c2c1c1c(c3[nH]c4ccccc4c23)-c2ccccc2C1C(O)c1cccnc1 (centres unmarked) [IV-13]
VEGFR kinase (% inhibition @ 300 nM) [2]: (8) %

SMILES: O=C1NC(=O)c2c1c1c(c3[nH]c4ccccc4c23)-c2ccccc2C1CO (centres unmarked) [IV-15]
VEGFR kinase (% inhibition @ 300 nM) [2]: (7) %

SMILES: O=C1NC(=O)c2c1c1c(c3[nH]c4ccccc4c23)-c2ccccc2C1c1cccs1 (centres unmarked) [IV-16]
VEGFR kinase (% inhibition @ 300 nM) [2]: (14) %

SMILES: COCCOCC1c2ccccc2-c2c1c1c(c3c2[nH]c2ccccc23)C(=O)NC1=O (centres unmarked) [IV-17]
VEGFR kinase (% inhibition @ 300 nM) [2]: (3) %

SMILES: O=C1NC(=O)c2c1c1c(c3[nH]c4ccccc4c23)-c2ccccc2C1C(O)c1ccncc1 (centres unmarked) [IV-18]
VEGFR kinase (% inhibition @ 300 nM) [2]: (8) %

SMILES: N#CCCn1c2ccccc2c2c3c(c4c(c21)-c1ccccc1CC4)C(=O)NC3=O [IV-19]
VEGFR kinase (% inhibition @ 300 nM) [2]: (4) %

SMILES: N#CCCCn1c2ccccc2c2c3c(c4c(c21)-c1ccccc1CC4)C(=O)NC3=O [IV-20]
VEGFR kinase (% inhibition @ 300 nM) [2]: (11) %

SMILES: CCOC(=O)CCn1c2ccccc2c2c3c(c4c(c21)-c1ccccc1CC4)C(=O)NC3=O [IV-21]
VEGFR kinase (% inhibition @ 300 nM) [2]: (7) %

SMILES: O=C(O)CCn1c2ccccc2c2c3c(c4c(c21)-c1ccccc1CC4)C(=O)NC3=O [IV-22]
VEGFR kinase (% inhibition @ 300 nM) [2]: (8) %

SMILES: NCCCn1c2ccccc2c2c3c(c4c(c21)-c1ccccc1CC4)C(=O)NC3=O [IV-23]
VEGFR kinase (% inhibition @ 300 nM) [2]: (0) %

SMILES: CS(=O)(=O)NCCCn1c2ccccc2c2c3c(c4c(c21)-c1ccccc1CC4)C(=O)NC3=O [IV-24]
VEGFR kinase (% inhibition @ 300 nM) [2]: (0) %

SMILES: CC(=O)NCCCn1c2ccccc2c2c3c(c4c(c21)-c1ccccc1CC4)C(=O)NC3=O [IV-25]
VEGFR kinase (% inhibition @ 300 nM) [2]: (0) %

SMILES: CNC(=S)NCCCn1c2ccccc2c2c3c(c4c(c21)-c1ccccc1CC4)C(=O)NC3=O [IV-26]
VEGFR kinase (% inhibition @ 300 nM) [2]: (10) %

SMILES: O=C(NCCCn1c2ccccc2c2c3c(c4c(c21)-c1ccccc1CC4)C(=O)NC3=O)Nc1ccccc1 [IV-27]
VEGFR kinase (% inhibition @ 300 nM) [2]: (5) %

SMILES: CC(C)(C)OC(=O)N1CCCC1C(=O)NCCCn1c2ccccc2c2c3c(c4c(c21)-c1ccccc1CC4)C(=O)NC3=O (centres unmarked) [IV-29]
VEGFR kinase (% inhibition @ 300 nM) [2]: (1) %

SMILES: O=C1NC(=O)c2c1c1c(c3c2c2ccccc2n3CCCNC(=O)C2CCCN2)-c2ccccc2CC1 (centres unmarked) [IV-30]
VEGFR kinase (% inhibition @ 300 nM) [2]: (1) %

SMILES: CS(=O)(=O)N1CCCC1C(=O)NCCCn1c2ccccc2c2c3c(c4c(c21)-c1ccccc1CC4)C(=O)NC3=O (centres unmarked) [IV-31]
VEGFR kinase (% inhibition @ 300 nM) [2]: (10) %

SMILES: CS(=O)(=O)NCc1ccc2[nH]c3c4c(c5c(c3c2c1)C(=O)NC5=O)CCc1ccccc1-4 [IV-34]
VEGFR kinase (% inhibition @ 300 nM) [2]: (54) %

SMILES: CNC(=S)NCc1ccc2[nH]c3c4c(c5c(c3c2c1)C(=O)NC5=O)CCc1ccccc1-4 [IV-35]
VEGFR kinase (% inhibition @ 300 nM) [2]: 43%
IC50 [2]: 316 nM

SMILES: CC(C)(C)OC(=O)C=Cc1ccc2[nH]c3c4c(c5c(c3c2c1)C(=O)NC5=O)CCc1ccccc1-4 [IV-36]
VEGFR kinase (% inhibition @ 300 nM) [2]: (17) %

SMILES: O=C(O)C=Cc1ccc2[nH]c3c4c(c5c(c3c2c1)C(=O)NC5=O)CCc1ccccc1-4 [IV-37]
VEGFR kinase (% inhibition @ 300 nM) [2]: (11) %

SMILES: CC(C)(C)OC(=O)CCc1ccc2[nH]c3c4c(c5c(c3c2c1)C(=O)NC5=O)CCc1ccccc1-4 [IV-38]
VEGFR kinase (% inhibition @ 300 nM) [2]: (5) %

SMILES: O=C1NC(=O)c2c1c1c(c3[nH]c4ccc(C=Cc5ccccn5)cc4c23)-c2ccccc2CC1 [IV-39]
VEGFR kinase (% inhibition @ 300 nM) [2]: (8) %

SMILES: O=C(O)CCc1ccc2[nH]c3c4c(c5c(c3c2c1)C(=O)NC5=O)CCc1ccccc1-4 [IV-40]
VEGFR kinase (% inhibition @ 300 nM) [2]: (10) %

SMILES: O=C1NC(=O)c2c1c1c(c3c2c2ccccc2n3CCCOCc2ccccc2)-c2ccccc2CC1 [IV-41]
VEGFR kinase (% inhibition @ 300 nM) [2]: (34) %

SMILES: O=C1NC(=O)c2c1c1c(c3c2c2ccccc2n3CCCO)-c2ccccc2CC1 [IV-42]
VEGFR kinase (% inhibition @ 300 nM) [2]: (42) %

SMILES: N#CC=Cc1ccc2[nH]c3c4c(c5c(c3c2c1)C(=O)NC5=O)CCc1ccccc1-4 [IV-43]
VEGFR kinase (% inhibition @ 300 nM) [2]: (8) %

SMILES: N#Cc1ccc2c(c1)c1c3c(c4c(c1n2CCCOCc1ccccc1)-c1ccccc1CC4)C(=O)NC3=O [IV-44]
VEGFR kinase (% inhibition @ 300 nM) [2]: (3) %

SMILES: O=C1NCc2c1c1c(c3[nH]c4ccccc4c23)-c2ccccc2C1 [IX-1]
trkA (% inhibition @ 300 nM) [1, 4]: (9) %
VEGFR kinase (% inhibition @ 300 nM) [2]: (10) %
PDGFRβ (% inhibition @ 1 μM) [3, 5]: (23) %

SMILES: O=C1NCc2c1c1c(c3[nH]c4ccccc4c23)-c2ccccc2CC1 [IX-2]
trkA (% inhibition @ 300 nM) [1, 4]: (9) %
IC50 [2]: 8750 nM
PDGFRβ (% inhibition @ 1 μM) [3, 5]: (8) %

IC50 [2]: 8390 nM
inhibition at 1 µM [3, 5]: 10%
SMILES: O=C1NC(=O)c2c1c1c(c3[nH]c4ncccc4c23)-c2ccccc2CC1 [XIII]

SMILES: O=C1NC(=O)c2c1c1ccc3sccc3c1c1[nH]c3ccccc3c21 [XVII]
inhibition at 0.3 µM [1]: 10%
IC50 [2]: 796 nM
inhibition at 1 µM [3]: 24%
